Among the test systems are KM12 colon; EKVX NSCLC; MDA-MB-435; HS 578T breast; UACC-257 melanoma; SF-295 CNS; RPMI-8226 leukemia; OVCAR-8 ovarian; SK-MEL-2 melanoma; K-562 leukemia; SNB-19 CNS; ACHN renal; SK-MEL-5 melanoma; PC-3 prostate; TK-10 renal.
What all share (test): NCI-60 cell line screen, 48 h

“And” between values parts separate entries of the source, which are not always exact repeats. Identical values can stand only once.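 96-well plates; 48 h exposure; 5 concentrations. Endpoints by linear interpolation between flanking doses. Not reached: highest tested concentration assigned. At the TGI there is no net growth.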

On to `CC(C)(C)Nc1noc(=O)n1C(C)(C)C`, for which the TGI in the assay with KM12 colon, in the assay with EKVX NSCLC, with MDA-MB-435, with HS 578T breast, in the assay on UACC-257 melanoma and in the assay on SF-295 CNS was over 100 µM throughout. Besides, the TGI in the assay with RPMI-8226 leukemia, in the assay on OVCAR-8 ovarian, in the assay on SK-MEL-2 melanoma, in the assay on K-562 leukemia, in the assay on SNB-19 CNS and in the assay with ACHN renal was over 100 µM in each case. In addition, the TGI with SK-MEL-5 melanoma, in the assay with PC-3 prostate and in the assay with TK-10 renal was over 100 µM in each case.
For the compound `COC(=O)C1OC(O[C@H]2CC[C@]3(C)[C@H]4CC=C5[C@@H]6CC(C)(C)CC[C@]6(C(=O)OC6OCC(O)C(O)C6OC6OC(C)C(OC7OCC(O)C(OC8OCC(O)C(O)C8O)C7O)C(OC7OCC(O)C(O)C7O)C6O)CC[C@@]5(C)[C@]4(C)CC[C@H]3C2(C)C)C(O)C(OC2OCC(O)C(O)C2O)C1O` (stereo not given in full), the TGI in the assay with KM12 colon was 10.7 µM and 10.8 µM; in the assay with EKVX NSCLC it was 16.3 µM and 14.8 µM; in the assay on MDA-MB-435 it was 4.13 µM and 4.42 µM; in the assay on HS 578T breast, > 100 µM and 33.9 µM; with UACC-257 melanoma, 8.58 µM and 10.8 µM; in the assay with SF-295 CNS, 11.5 µM and 17 µM. The TGI with RPMI-8226 leukemia was 9 µM and 15.6 µM; in the assay on OVCAR-8 ovarian, > 100 µM and 23.3 µM; in the assay with SK-MEL-2 melanoma, 9.16 µM and 7.73 µM; in the assay with K-562 leukemia, 14.9 µM and 19.1 µM; in the assay on SNB-19 CNS, > 100 µM and 20.1 µM; in the assay on ACHN renal, 22.1 µM and 15.9 µM. Moreover, the TGI in the assay with SK-MEL-5 melanoma was 7 µM and 12.1 µM; in the assay with PC-3 prostate it was 18.9 µM and 16.4 µM; in the assay on TK-10 renal, 70.4 µM and 24.4 µM.
For the compound `O=C(c1ccccc1)c1ccc(-n2c3ccccc3c3ccc4c(c32)C(=O)C=CC4=O)cc1`, the TGI with KM12 colon is 37.5 µM; in the assay with EKVX NSCLC it was 26.3 µM; with MDA-MB-435, 20.5 µM; in the assay on HS 578T breast it was over 55.5 µM; in the assay on UACC-257 melanoma it was 27.5 µM; in the assay with SF-295 CNS, 32.4 µM. The TGI in the assay with RPMI-8226 leukemia is over 100 µM; with OVCAR-8 ovarian, 27.2 µM; in the assay on SK-MEL-2 melanoma, 37.3 µM; in the assay on K-562 leukemia it was over 100 µM; with SNB-19 CNS it was 36.4 µM; with ACHN renal, 11.6 µM. Besides, the TGI with SK-MEL-5 melanoma worked out at 43 µM; with PC-3 prostate, 25.8 µM; with TK-10 renal, 25.3 µM.
In the case of `CC(=O)Nc1cc2c3c(c1)CCCN3CCC2`, the TGI with KM12 colon, with EKVX NSCLC, in the assay with MDA-MB-435, with HS 578T breast, in the assay on UACC-257 melanoma and in the assay on SF-295 CNS was over 100 µM throughout. Further, the TGI with RPMI-8226 leukemia, in the assay with OVCAR-8 ovarian, in the assay with SK-MEL-2 melanoma, with K-562 leukemia, with SNB-19 CNS and in the assay on ACHN renal was over 100 µM in each case. Besides, the TGI with SK-MEL-5 melanoma, with PC-3 prostate and in the assay with TK-10 renal was over 100 µM each time.
